Among the data in patent US20230157945A1, “Nasal Hygiene Method and Formulation” (ACTUAL NATURAL HEALTH & WELLNESS PRODUCTS, INC., priority 2018, published 2023) are pain relief values, retold here.

For the test, the system named is human nasal passage. In words: testing of the nasal spray / nasal wash composition applied to the nasal passages. The format is in vivo. The note with it: CBD at 0.3% by weight in the composition. The protocol:
A homogenized mixture of water, cannabinoid, an olfactory stimulant, and inorganic salt when applied to a nasal passage as a mist delivering 0.08 mL to 0.18 mL in each nostril is effective as a nasal wash. A solubilizing agent particularly suited for cannabinoids may also be added, such as those disclosed in U.S. patent application Ser. No. 17/527,465, filed Nov. 16, 2021.
Practicing nasal hygiene by the use of the method of applying to a person's nostril a mist of nasal wash composition comprising the product of compounding under homogenizing conditions water, an amount of a source of chlorine dioxide, 0.1 to 1% by weight cannabinoid; 0.1 to 3% by weight of olfactory stimulant; and 0 to 5% by weight of at least one fixative compound; and blowing air out of the nostril. and composition of the invention, nasal irritation is reduced. […]
It is a feature of the invention that the practice of nasal hygiene according to the invention requires only moderate and convenient quantities of the composition. It is sufficient for the user to place a convenient quantity of the composition, which can range from about 0.3 to 3 milliliters, into each nostril and retain it for a holding period which can range from a fraction of a minute to about ten minutes or as long as comfortable, and then remove it as by blowing the nose. […]

Each structure is given as a SMILES string.

Regarding `C=C(C)[C@@H]1CCC(C)=C[C@H]1c1c(O)cc(CCCCC)cc1O` [CBD, Cannabidiol], the pain relief result was “effective pain relief”.
